Source: patent US6451999B2, “1-(3-aminoindazol-5-yl)-3-butyl-cyclic urea useful as a HIV protease inhibitor” (Bristol-Myers Squibb Pharma Company, priority 1996, dated 2002)
In brackets after ≈: the same amount, converted by molar mass.

Experiments:
HIV-1 (RF) = test: HIV RNA assay: microplate based compound evaluation in HIV-1 infected MT-2 cells; assay type: cell-based; conditions: Human immunodeficiency virus 1, MT2, 72 h; HIV-1 (RF) infected MT-2 cells, 3 days of culture; virus dilution selected to standardize the inoculum; read-out: IC90 value (concentration of compound required to reduce the HIV RNA level by 90%)
Protocol: Plasmid pDAB 72 containing both gag and pol sequences of BH10 (bp 113-1816) cloned into PTZ 19R was prepared according to Erickson-Viitanen et al. AIDS Research and Human Retroviruses 1989, 5, 577. The plasmid was linearized with Bam HI prior to the generation of in vitro RNA transcripts using the Riboprobe Gemini system II kit (Promega) with T7 RNA polymerase. Synthesized RNA was purified by treatment with RNase free DNAse (Promega), phenol-chloroform extraction, and ethanol precipitation. RNA transcripts were dissolved in water, and stored at −70° C. The concentration of RNA was determined from the A260.
Biotinylated capture probes were purified by HPLC after synthesis on an Applied Biosystems (Foster City, Calif.) DNA synthesizer by addition of biotin to the 5′ terminal end of the oligonucleotide, using the biotin-phosphoramidite reagent of Cocuzza, Tet. Lett. 1989, 30, 6287. […]
MT-2 and MT-4 cells were maintained in RPMI 1640 supplemented with 5% fetal calf serum (FCS) for MT-2 cells or 10% FCS for MT-4 cells, 2 mM L-glutamine and 50 μg/mL gentamycin, all from Gibco. […] Infectious titers of HIV-1(RF) stocks were 1-3×10^7 PFU (plaque forming units) /mL as measured by plaque assay on MT-2 cells (see below). […]

`Nc1ccn([C@H]2CC[C@@H](CO)O2)c(=O)n1` [ddC, dideoxycytidine] showed an IC90 (HIV-1 (RF)) of 0.2 mg/L (≈ 0.947 µM).
Compound `CCCCN1C(=O)N(Cc2ccc3[nH]nc(N)c3c2)[C@H](Cc2ccccc2)[C@H](O)[C@@H](O)[C@H]1Cc1ccccc1` [Example 1, (4R,5S,6S,7R)-Hexahydro-1-[5-(3-aminoindazole)methyl]-3-butyl-5,6-dihydroxy-4,7-bis[phenylmethyl]-2H-1,3-diazapin-2-one] has a melting point of 129 to 131 °C.
